Measurements as given in patent publication US20060247165A1, “Methods and compositions for encapsulation of cells” (priority 2005, published 2006).
Residues, ends and D or L forms follow the SMILES beside them. *: point of attachment. Butanoyl(4-pyren-1-yl) = O=C(CCCc1ccc2ccc3cccc4ccc1c2c34)*; Palmitoyl = CCCCCCCCCCCCCCCC(=O)*

What was measured:
spinal cord = conditions: rat, in vivo
Method: Spinal Cord Injection Procedure. Rats were anesthetized using 45 mg/kg Pentobarbital (NEMBUTAL). A laminectomy was performed to expose spinal segment T13 and a stereotaxic micromanipulator (Kopf Instruments) with a Hamilton syringe attached to a 32 gauge needle was used to inject 6 μl at 333 nl/sec of isoosmotic glucose (vehicle) or peptide amphiphile into the spinal cord at T10 at a depth of 1.5 mm. The needle was kept inside the site of injection for 2 minutes after each injection in order to allow the IKVAV-PA to gel without disturbance.

[1] = test system: neural progenitor cells (NPCs); assay: Immunocytochemistry of NPC differentiation (β-tubulin III neurons, GFAP astrocytes) in 3D scaffolds; assay type: cell-based, mouse
Method: (§1) Cell Culture and In Vitro Encapsulation in IKVAV-PA nano-networks. Neural progenitor cells (NPCs) were cultured as previously described (See, e.g., Zhu et al., J. Neurosci. Res. 59, 312 (2000)). Briefly, the cortices of E13 mouse embryos were dissected and plated on un-treated petri dishes in DMEM/F12 media supplemented with bFGF (10 ng/ml). After four days, mechanically and enzymatically dissociated NPCs and undissociated neurospheres (e.g., undissociated NPC aggregates) were plated onto appropriate substrates (e.g., encapsulated in IKVAV-peptide amphiphile (PA), EQS-PA, or alginate gels, or cultured on laminin, poly-D-lysine, or IKVAV peptide coated cover slips). In all cases this was taken as 0 days in vitro. […]
(§2) Immunocytochemistry. […] Cell imaging was done with a high resolution Cool Snap camera attached to a Nikon TE-2000 fluorescence microscope interfaced with a PC running MetaView imaging software, or an Axiocam camera attached to a Zeiss Axiovert 200 fluorescence microscope interfaced with a PC running AxioVision imaging software.
(§3) Cell Counts. Randomly selected fields of view were imaged for different experimental conditions and cells counted using ImageJ (Scion Corporation) morphometric analysis software. […]

[2] = test system: neural progenitor cells (NPCs); assay: Cell body area and neurite length of neurons differentiated from NPCs; assay type: cell-based, mouse; conditions: after 1 day
Method: as §1, §2, §3

[3] = test system: neural progenitor cells (NPCs); assay: NPC differentiation on two-dimensional coated substrates; assay type: cell-based, mouse; conditions: for differentiation into neurons on 2D substrate: cells plated for 1 day
Method: Two-dimensional cultures. For IKVAV peptide experiments, the same 12 mm glass coverslips used for the three-dimensional experiments were soaked in ethanol to encourage hydrophilicity, then spin-coated with 50 μL of a 1 mg/mL IKVAV peptide solution. For IKVAV-PA experiments, the coverslips were coated with PDL (e.g., to encourage adsorption) and subsequently with IKVAV-PA solution. In both cases, the cover slips were allowed to dry overnight and then washed three times with distilled water to remove weakly adherent material before the addition of cell suspension.
NPC differentiation on a two dimensional (2D) substrate coated with IKVAV-PA nanofibers was investigated.

injured spinal cord = assay: Stability of fluorescent peptide amphiphile gel in injured spinal cord; assay type: in vivo, mouse
From the text: Mouse spinal cord injuries, amphiphile injections and animal care. All animal care and surgical interventions were undertaken in strict accordance with the Public Health Service Policy on Humane Care and Use of Laboratory Animals, Guide for the Care and Use of Laboratory Animals (Institute of Laboratory Animal Resources, National Research Council, 1996). The Institutional Animal Care and Use Committee approved of all operative procedures. Female, adult 129 SvJ mice (10 weeks old; Jackson Labs, USA) were anesthetized using avertin intraperitoneally. A laminectomy was performed and the spinal cord was compressed dorsoventrally at T10 by the extradural application of a modified Kerr-Lougheed aneurysm clip for 1 min (FEJOTA mouse clip, University Health Network, Canada). The skin was sutured using AUTOCLIP (9 mm, Becton Dickinson). Post-operatively, animals were kept under a heat-lamp to maintain body temperature. […]
Peptide amphiphile solution or vehicle was injected 24 hours after the spinal cord injury using borosilicate glass capillary micropipettes (Sutter Instruments) (OD: 100 μm). […] The micropipette was manually inserted to a depth of 750 μm measured from the dorsal surface of the cord and 2.5 μl of the diluted amphiphile solution or vehicle was injected at the rate of 2.5 μl/min. […]

CCCCCCCCCCCCCCCC(=O)N[C@@H](C)C(=O)N[C@@H](C)C(=O)N[C@@H](C)C(=O)N[C@@H](C)C(=O)NCC(=O)NCC(=O)NCC(=O)N[C@@H](CCC(=O)O)C(=O)N[C@H](C(=O)N[C@@H](CCCCN)C(=O)N[C@H](C(=O)N[C@@H](C)C(=O)N[C@H](C(=O)O)C(C)C)C(C)C)[C@@H](C)CC [IKVAV-PA] (Palmitoyl-AAAAGGGEIKVAV-OH)
toxic effects after spinal cord injection (spinal cord): no toxic effects

laminin
GFAP expression relative to cells cultured on nanofiber networks ([1]; coated substrates): significantly greater | neurite development [2]: had not developed neurites | differentiation into neurons on 2D substrate [3]: did not lead to the significant neuron differentiation

CC[C@H](C)[C@H](NC(=O)[C@H](CCC(=O)O)NC(=O)[C@H](C)NC(=O)[C@H](C)NC(=O)[C@H](C)NC(=O)[C@H](CC(C)C)NC(=O)[C@H](CO)NC(=O)[C@H](CC(C)C)NC(=O)[C@H](CO)NC(=O)CCCc1ccc2ccc3cccc4ccc1c2c34)C(=O)N[C@@H](CCCCN)C(=O)N[C@H](C(=O)N[C@@H](C)C(=O)N[C@H](C(=O)O)C(C)C)C(C)C [PA2] ({Butanoyl(4-pyren-1-yl)}-SLSLAAAEIKVAV-OH)
presence of gel in injured cord (injured spinal cord; 5 weeks after injection, 1% solution in isotonic glucose): remnants could still be seen | lifetime of the nanofiber scaffold in vivo (injured spinal cord; mouse, in vivo): on the order of weeks

isolucine-lysine-valine-alanine-valine [IKVAV peptide]
neuron differentiation on titration into EQS-PA scaffolds ([1]; increasing amounts of soluble peptide, 1 day): failed to induce the extent of neuron differentiation | expression of β-tubulin III and/or GFAP on 2D coated substrate [3]: nearly nonquantifiable amounts | differentiation into neurons on 2D substrate [3]: did not lead to the significant neuron differentiation
